From patent US9328122B2, “7-substituted Hanfangichin B derivative, and preparation method and use thereof” (HANGZHOU BENSHENG PHARMACEUTICAL CO., LTD., priority 2012, dated 2016) come the findings set out here.

SMILES strings stand for the structures. Converted amounts (≈) assume the structure as drawn.

The subject of the first experiment is K562/ADR (K562adr, drug-resistant chronic myeloid leukemia) cells. The experiment in a line: MTT cell growth inhibition, leukemia cells. The following applies: Homo sapiens; K562/ADR, 72 h, MTT; read-out: IC50. It is filed as cell-based. The gist of the method: (§1)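 MTT read-out of viable cells after 72 h compound exposure at 37° C., 5% CO2; 6000 cells/well in RPMI-1640 + 10% FBS, dosed one day after seeding over a range of concentrations.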
Consider `COc1ccc2cc1Oc1ccc(cc1)C[C@H]1c3cc(c(OC)cc3CCN1C)Oc1c(OC3CCCC3)c(OC)cc3c1[C@H](C2)N(C)CC3` [BS-FC-220], for which the IC50 worked out at 0.43 µg/mL (≈ 0.635 µM).

Still in this experiment, the particulars now being: Homo sapiens; K562/ADR, 72 h, MTT; read-out: IC90.
In the case of `COc1ccc2cc1Oc1ccc(cc1)C[C@H]1c3cc(c(OC)cc3CCN1C)Oc1c(OC3CCCC3)c(OC)cc3c1[C@H](C2)N(C)CC3` [BS-FC-220], the IC90 came to 4 µg/mL (≈ 5.91 µM).

For the next experiment, the system named is NB4 (acute promyelocytic leukemia) cells. The experiment in a line: MTT cell growth inhibition, leukemia cells. It is filed as cell-based. The conditions noted are these: Homo sapiens; NB4, 72 h, MTT; read-out: IC50. The gist of the method:
as §1
On to `COc1ccc2cc1Oc1ccc(cc1)C[C@H]1c3cc(c(OC)cc3CCN1C)Oc1c(OC3CCCC3)c(OC)cc3c1[C@H](C2)N(C)CC3` [BS-FC-220], for which the IC50 was determined as 0.66 µg/mL (≈ 0.975 µM).

The same experiment, now with this note: Homo sapiens; NB4, 72 h, MTT; read-out: IC90.
Take `COc1ccc2cc1Oc1ccc(cc1)C[C@H]1c3cc(c(OC)cc3CCN1C)Oc1c(OC3CCCC3)c(OC)cc3c1[C@H](C2)N(C)CC3` [BS-FC-220]: the IC90 was 3.16 µg/mL (≈ 4.67 µM).

Another experiment deals with Becap-37 (human breast cancer) cells. In words: MTT cell growth inhibition, solid tumor cells. It is filed as cell-based. The conditions noted are these: Homo sapiens; Becap-37, 72 h, MTT; read-out: IC50. In outline: (§2)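 Human tumor cells seeded at 6000 per well grow 24 h in serum-supplemented (10% FBS) high-glucose DMEM. A 72 h incubation with graded compound doses at 37 °C follows, and MTT reports viable cell number.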
Turning to `COc1ccc2cc1Oc1ccc(cc1)C[C@H]1c3cc(c(OC)cc3CCN1C)Oc1c(OC3CCCC3)c(OC)cc3c1[C@H](C2)N(C)CC3` [BS-FC-220], the IC50 was 3.19 µg/mL (≈ 4.71 µM).

The experiment is the same for the next values; noted with them: Homo sapiens; Becap-37, 72 h, MTT; read-out: IC90.
Turning to `COc1ccc2cc1Oc1ccc(cc1)C[C@H]1c3cc(c(OC)cc3CCN1C)Oc1c(OC3CCCC3)c(OC)cc3c1[C@H](C2)N(C)CC3` [BS-FC-220], the IC90 was found to be 6.1 µg/mL (≈ 9.01 µM).

A further experiment concerns MG-63 (osteosarcoma) cells. The experiment in a line: MTT cell growth inhibition, solid tumor cells. The following applies: Homo sapiens; MG-63, 72 h, MTT; read-out: IC50. It is filed as cell-based. The gist of the method: as §2
In the case of `COc1ccc2cc1Oc1ccc(cc1)C[C@H]1c3cc(c(OC)cc3CCN1C)Oc1c(OC3CCCC3)c(OC)cc3c1[C@H](C2)N(C)CC3` [BS-FC-220], the IC50 was found to be 2.8 µg/mL (≈ 4.14 µM).

The same experiment, now with this note: Homo sapiens; MG-63, 72 h, MTT; read-out: IC90.
In the case of `COc1ccc2cc1Oc1ccc(cc1)C[C@H]1c3cc(c(OC)cc3CCN1C)Oc1c(OC3CCCC3)c(OC)cc3c1[C@H](C2)N(C)CC3` [BS-FC-220], the IC90 came out at 3.6 µg/mL (≈ 5.32 µM).

The subject of another experiment is Hep G2 (human liver cancer) cells. In words: MTT cell growth inhibition, solid tumor cells. It is filed as cell-based. The following applies: Homo sapiens, HepG2; Hep G2, 72 h, MTT; read-out: IC50. In outline:
as §2
With `COc1ccc2cc1Oc1ccc(cc1)C[C@H]1c3cc(c(OC)cc3CCN1C)Oc1c(OC3CCCC3)c(OC)cc3c1[C@H](C2)N(C)CC3` [BS-FC-220], the 50% inhibitory concentration (IC50) was found to be 2.37 µg/mL (≈ 3.5 µM).

The experiment is the same for the next values; noted with them: Homo sapiens, HepG2; Hep G2, 72 h, MTT; read-out: IC90.
Turning to `COc1ccc2cc1Oc1ccc(cc1)C[C@H]1c3cc(c(OC)cc3CCN1C)Oc1c(OC3CCCC3)c(OC)cc3c1[C@H](C2)N(C)CC3` [BS-FC-220], the IC90 stood at 7.01 µg/mL (≈ 10.4 µM).

In a further experiment the test system is U87-MG (malignant glioma) cells. The experiment in a line: MTT cell growth inhibition, solid tumor cells. It is filed as cell-based. The following applies: Homo sapiens, U-87 MG; U87-MG, 72 h, MTT; read-out: IC50. In outline:
as §2
In the case of `COc1ccc2cc1Oc1ccc(cc1)C[C@H]1c3cc(c(OC)cc3CCN1C)Oc1c(OC3CCCC3)c(OC)cc3c1[C@H](C2)N(C)CC3` [BS-FC-220], the IC50 was determined as 2.28 µg/mL (≈ 3.37 µM).

The same experiment, now with this note: Homo sapiens, U-87 MG; U87-MG, 72 h, MTT; read-out: IC90.
As to `COc1ccc2cc1Oc1ccc(cc1)C[C@H]1c3cc(c(OC)cc3CCN1C)Oc1c(OC3CCCC3)c(OC)cc3c1[C@H](C2)N(C)CC3` [BS-FC-220], the IC90 was 7.03 µg/mL (≈ 10.4 µM).

The next experiment concerns Hela (human cervical cancer) cells. In words: MTT cell growth inhibition, solid tumor cells. It is filed as cell-based. The conditions noted are these: Homo sapiens; Hela, 72 h, MTT; read-out: IC50. In outline:
as §2
`COc1ccc2cc1Oc1ccc(cc1)C[C@H]1c3cc(c(OC)cc3CCN1C)Oc1c(OC3CCCC3)c(OC)cc3c1[C@H](C2)N(C)CC3` [BS-FC-220]: the IC50 turned out to be 1.43 µg/mL (≈ 2.11 µM).

The experiment is the same for the next values; noted with them: Homo sapiens; Hela, 72 h, MTT; read-out: IC90.
Consider `COc1ccc2cc1Oc1ccc(cc1)C[C@H]1c3cc(c(OC)cc3CCN1C)Oc1c(OC3CCCC3)c(OC)cc3c1[C@H](C2)N(C)CC3` [BS-FC-220], for which the IC90 came to 3.71 µg/mL (≈ 5.48 µM).

The test system of the next experiment is RKO (human colon adenocarcinoma) cells. In words: MTT cell growth inhibition, solid tumor cells. The conditions noted are these: Homo sapiens; RKO, 72 h, MTT; read-out: IC50. It is filed as cell-based. The gist of the method:
as §2
As to `COc1ccc2cc1Oc1ccc(cc1)C[C@H]1c3cc(c(OC)cc3CCN1C)Oc1c(OC3CCCC3)c(OC)cc3c1[C@H](C2)N(C)CC3` [BS-FC-220], the IC50 was 1.25 µg/mL (≈ 1.85 µM).

The experiment is the same for the next values; noted with them: Homo sapiens; RKO, 72 h, MTT; read-out: IC90.
With `COc1ccc2cc1Oc1ccc(cc1)C[C@H]1c3cc(c(OC)cc3CCN1C)Oc1c(OC3CCCC3)c(OC)cc3c1[C@H](C2)N(C)CC3` [BS-FC-220], the IC90 came out at 3.73 µg/mL (≈ 5.51 µM).

The next experiment concerns tumor. The experiment in a line: Antitumor activity compared with fangchinoline, overall statement. It is filed as cell-based. The conditions noted are these: tumor type not specified.
Take `COc1ccc2cc1Oc1ccc(cc1)C[C@H]1c3cc(c(OC)cc3CCN1C)Oc1c(OC3CCCC3)c(OC)cc3c1[C@H](C2)N(C)CC3` [BS-FC-220]: the “antitumor activity compared with that of fangchinoline” value is recorded as “significantly superior”.

As usually defined, the IC50 is the concentration that inhibits the measured activity by half. The IC90 is the concentration at which the effect reaches the 90% level.
